The values that follow come from ChEMBL document CHEMBL4680158, “C6-O-alkylated 7-deazainosine nucleoside analogues: Discovery of potent and selective anti-sleeping sickness agents” (Eur J Med Chem, 2020).

Structures are written as SMILES.

Data set [1] deals with Trypanosoma brucei brucei. The data set can be described thus: Antitrypanosomal activity against Trypanosoma brucei brucei assessed as reduction in parasite growth incubated for 3 days by resazurin dye based fluorescence assay. The format is functional, organism-based. As to conditions: 72 h. Background: Resazurin is reduced to fluorescent resorufin, in cell work by metabolically active cells.

Data set [2] deals with Trypanosoma brucei rhodesiense. The data set can be described thus: Antitrypanosomal activity against Trypanosoma brucei rhodesiense assessed as reduction in parasite growth incubated for 3 days by resazurin dye based fluorescence assay. The settings on record: 72 h. The format is functional, organism-based.
A further data set has as its system MRC5. The experiment in a line: Cytotoxicity against human MRC5 cells assessed as reduction in cell viability incubated for 3 days by resazurin dye based fluorescence assay. As to conditions: MRC5, 72 h.
Data set [3] is described as follows: Selectivity index, ratio of EC50 for cytotoxicity against human MRC5 cells to EC50 for antitrypanosomal activity against Trypanosoma brucei brucei. As to conditions: read-out: Ratio EC50. Format: toxicity, cell-based.
A short description of data set [4]: Selectivity index, ratio of EC50 for cytotoxicity against human MRC5 cells to EC50 for antitrypanosomal activity against Trypanosoma brucei rhodesiense. The format is toxicity, cell-based. As to conditions: read-out: Ratio EC50.
Data set [5] concerns Trypanosoma brucei brucei. The data set can be described thus: Antitrypanosomal activity against Trypanosoma brucei brucei Lister 427 blood stream forms assessed as reduction in parasite viability incubated for 48 hrs by resazurin dye based fluorescence assay. The format is functional, organism-based. As to conditions: Lister 427, 48 h.
Data set [6] relates to Trypanosoma brucei. The experiment in a line: Antitrypanosomal activity against drug resistant Trypanosoma brucei harboring TbAT1 deficient assessed as reduction in parasite viability incubated for 48 hrs by resazurin dye based fluorescence assay. The format is functional, organism-based.
A short description of data set [7]: Resistance factor, ratio of EC50 for antitrypanosomal activity against drug resistant Trypanosoma brucei harboring TbAT1 deficient to antitrypanosomal activity against Trypanosoma brucei brucei Lister 427 blood stream form. The format is functional.
Data set [8] relates to Trypanosoma brucei. The experiment in a line: Antitrypanosomal activity against drug resistant Trypanosoma brucei B48 assessed as reduction in parasite viability incubated for 48 hrs by resazurin dye based fluorescence assay. The format is functional, organism-based. The settings on record: B48, 48 h.
Data set [9] is described as follows: Resistance factor, ratio of EC50 for antitrypanosomal activity against drug resistant Trypanosoma brucei B48 to antitrypanosomal activity against Trypanosoma brucei brucei Lister 427 blood stream form. The format is functional.
Data set [10] deals with Trypanosoma brucei. The experiment in a line: Antitrypanosomal activity against drug resistant Trypanosoma brucei ISMR1 assessed as reduction in parasite viability incubated for 48 hrs by resazurin dye based fluorescence assay. The format is functional, organism-based. The settings on record: ISMR1, 48 h.
Data set [11] is described as follows: Resistance factor, ratio of EC50 for antitrypanosomal activity against drug resistant Trypanosoma brucei ISMR1 to antitrypanosomal activity against Trypanosoma brucei brucei Lister 427 blood stream form. Format: functional.
Data set [12] in a line: (§1) Inhibition of Trypanosoma brucei P1 transporter assessed as reduction in [3H]-adenosine uptake measured after 60 sec by scintillation counting method.
A short description of data set [13]: (§2) Inhibition of Trypanosoma brucei P2 transporter assessed as reduction in [3H]-adenosine uptake measured after 60 sec by scintillation counting method.
For data set [14], the system named is Trypanosoma brucei. Described as §1.
Data set [15] concerns Trypanosoma brucei. The data set is described as §2.
Data set [16] is described as follows: Inhibition of Trypanosoma brucei P1 transporter assessed as reduction in [3H]-adenosine uptake by scintillation counting method.
Data set [17] can be described thus: Inhibition of Trypanosoma brucei P2 transporter assessed as reduction in [3H]-adenosine uptake by scintillation counting method.

As usually defined, the EC50 is the concentration needed to bring the measured effect to its halfway point. As a reminder, the Ki is the dissociation constant of the complex between target and ligand, obtained from inhibition or displacement. For `CCOc1ncnc2c1c(Cl)cn2[C@@H]1O[C@H](CO)[C@@H](O)[C@H]1O`, the EC50 in data set [1] is 120 nM; in data set [2] it was 57 nM; with MRC5, not below 64000 nM; in data set [5], 79 nM; in the data set on Trypanosoma brucei [6], 113 nM; in the data set with Trypanosoma brucei [8], 134 nM. Further, the EC50 in the data set with Trypanosoma brucei [10] amounted to 194 nM. Further, the selectivity ratio in [3] is more than 275; in data set [4], more than 578. Further, the Ratio EC50 in [7] came to 1.43; in [9], 1.7; in data set [11], 2.45. The Ki in data set [12] worked out at 99000 nM; in data set [13], 139000 nM.

A word on the Km: it is the concentration of substrate that gives half-maximal velocity. In the case of `Nc1ncnc2c1ncn2[C@@H]1O[C@H](CO)[C@@H](O)[C@H]1O`, the results for the Km with Trypanosoma brucei [14] and in the data set on Trypanosoma brucei [15] were 0.12 µM and 0.53 µM, respectively.

For the compound `Nc1ncnc2c1ccn2[C@@H]1O[C@H](CO)[C@@H](O)[C@H]1O` [TUBERCIDIN], the inhibition constant Ki came out at 78000 nM in data set [16] and 3800 nM in [17].

Consider `CC(C)Oc1ncnc2c1c(Cl)cn2[C@@H]1O[C@H](CO)[C@@H](O)[C@H]1O`, for which the EC50 in data set [1] is 90 nM; in [2], 100 nM; in the data set on MRC5, more than 64000 nM; in [5], 184 nM; in the data set on Trypanosoma brucei [6], 198 nM; in the data set on Trypanosoma brucei [8] it was 188 nM. Also, in the data set with Trypanosoma brucei [10], the EC50 came out at 270 nM. In addition, the selectivity ratio in data set [3] is more than 711; in data set [4], more than 640. For the same compound, the Ratio EC50 in [7] is 1.08; in [9] it was 1.02; in data set [11], 1.47. Moreover, the Ki in data set [12] came out at 284000 nM; in data set [13], 246000 nM.

As to `COc1ncnc2c1c(Cl)cn2[C@@H]1O[C@H](CO)[C@@H](O)[C@H]1O`, the EC50 in [1] is 160 nM; in [2], 36 nM; in the data set with MRC5, not below 32000 nM; in [5], 100 nM; with Trypanosoma brucei [6], 57 nM; with Trypanosoma brucei [8], 57 nM. Besides, in the data set on Trypanosoma brucei [10], the concentration giving a half-maximal response (EC50) turned out to be 84 nM. For the same compound, the selectivity ratio in [3] is more than 200; in [4], more than 888. Moreover, the results for the Ratio EC50 in data set [7], in [9] and in data set [11] were 0.57, 0.57 and 0.84, respectively. The inhibition constant (Ki) came out at 35500 nM in data set [12] and 149000 nM in data set [13].

As for `CC[n+]1c(-c2ccccc2)c2cc(N/N=N/c3cccc(C(=N)N)c3)ccc2c2ccc(N)cc21`, the Ratio EC50 in data set [7] was determined as 1.2; in [9] it was 0.85; in [11], 4.8.

Consider `COc1ncnc2c1c(Br)cn2[C@@H]1O[C@H](CO)[C@@H](O)[C@H]1O`, for which the concentration for a half-maximal effect (EC50) is 190 nM in data set [1]; 36 nM in [2]; more than 64000 nM in the data set with MRC5; 117 nM in data set [5]; 83 nM with Trypanosoma brucei [6]; 90 nM in the data set on Trypanosoma brucei [8]. In addition, the EC50 in the data set with Trypanosoma brucei [10] was found to be 99 nM. Moreover, the selectivity ratio was more than 336 in data set [3] and more than 1780 in data set [4]. Besides, the Ratio EC50 in [7] came out at 0.71; in data set [9] it was 0.77; in data set [11], 0.85.
